Laboratory results: US11046700B2, “Substituted imidazo[1,2-a]pyrazines, pyrazolo[1,5-c]pyrimidines, pyrazolo[1,5-a]pyridines, and purines for the treatment of schistosomiasis” (Merck Patent GmbH, priority 2017, dated 2021)
Like-named read-outs stand apart in the source and are kept apart here.

How the values were obtained:
Assay type in all cases: cell-based
S. mansoni adult worms = experiment: In vitro assay, S. mansoni adult worms; conditions: Schistosoma mansoni; S. mansoni adult worms, in vitro; read-out: (a) Adult
Procedure: (§1) The routine biological assays using adult or juvenile worms and cytotoxicity assays using MRC-5 cells have been disclosed previously in Mansour, N. R., et al. (2016). “High Throughput Screening Identifies Novel Lead Compounds with Activity against Larval, Juvenile and Schistosoma mansoni PLoS Negl Trap Dis 10(4): e0004659. Cytotoxicity assays using the HepG2 cell line were carried out as described in Molecular Diversity (2015) 19, 251-261.
(a) S. mansoni adult worms

[1] = tested on: S. mansoni juvenile worms; experiment: In vitro assay, S. mansoni juvenile worms; conditions: Schistosoma mansoni, read-out: (b) Juvenile
Procedure: as §1
(b) S. mansoni juvenile worms

HepG2 cell line = experiment: Cytotoxicity against human HepG2 cell lines
[2] = S. mansoni juvenile worms, in vitro

| IC50 (S. mansoni adult worms) [µM] | IC50 [1, 2] [µM] | Structure (SMILES) | (e) Cytotox HepG2 (HepG2 cell line) [µM] | IC50 [1] [µM] |
| --- | --- | --- | --- | --- |
| 0.49 | 1.42 | Cc1nc2cnc(-c3cccc(C(F)(F)F)c3)cn2c1-c1ccc(O)cc1 [Example 4, 4-[2-methyl-6-[3-(trifluoromethyl)phenyl]imidazo[1,2-a]pyrazin-3-yl]phenol] | – | – |
| 0.52 | 1.27 | COc1cc(-c2c(C)nc3cnc(-c4cccc(C(F)(F)F)c4)cn23)ccc1O [Example 5, 2-methoxy-4-(2-methyl-6-(3-(trifluoromethyl)phenyl)imidazo[1,2-a]pyrazin-3-yl)] | – | – |
| – | 0.49 | Oc1ccc(-c2c(C(F)F)nc3cnc(-c4cccc(C(F)(F)F)c4)cn23)c(F)c1 [Example 11, 3-fluoro-4-[2-difluoromethyl-6-[3-(trifluoromethyl)phenyl]imidazo[1,2-a]pyrazin-3-yl]phenol] | – | – |
| < 0.049 | 0.25 | Oc1ccc(-c2c(C(F)(F)F)nc3cnc(-c4cccc(C(F)(F)F)c4)cn23)c(F)c1 [Example 12, 3-fluoro-4-[2-trifluoromethyl-6-[3-(trifluoromethyl)phenyl]imidazo[1,2-a]pyrazin-3-yl]phenol] | – | – |
| 0.072 | 0.063 | COc1ccc(-c2c(C3CC3)nc3cnc(-c4cccc(C(F)(F)F)c4)cn23)cc1O [Example 13, 2-methoxy-5-[2-cyclopropyl-6-[3-(trifluoromethyl)phenyl]imidazo[1,2-a]pyrazin-3-yl]phenol] | – | – |
| – | 0.23 | Oc1ccc(-c2c(C3CC3)nc3cnc(-c4cccc(C(F)(F)F)c4)cn23)c(F)c1 [Example 14, 3-fluoro-4-[2-cyclopropyl-6-[3-(trifluoromethyl)phenyl]imidazo[1,2-a]pyrazin-3-yl]phenol] | – | – |
| – | 0.17 | Cc1nc2cnc(-c3cccc(C(F)(F)F)c3)cn2c1-c1c(F)cc(O)cc1F [Example 15, 3,5-difluoro-4-[2-methyl-6-[3-(trifluoromethyl)phenyl]imidazo[1,2-a]pyrazin-3-yl]phenol] | 8.4 | – |
| – | 0.29 | CCCc1nc2cnc(-c3cccc(C(F)(F)F)c3)cn2c1-c1ccc(OC)c(O)c1 [Example 18, 2-methoxy-5-[2-(propan-1-yl)-6-[3-(trifluoromethyl)phenyl]imidazo[1,2-a]pyrazin-3-yl]phenol] | – | – |
| 0.92 | 1.04 | COc1cc(O)ccc1-c1c(C(C)C)nc2cnc(-c3cccc(C(F)(F)F)c3)cn12 [Example 20, 4-(2-isopropyl-6-(3-(trifluoromethyl)phenyl)imidazo[1,2-a]pyrazin-3-yl)-3-methoxyphenol] | – | – |
| – | 0.79 | COc1ccc(-c2c(C)nn3cnc(-c4cccc(C(F)(F)F)c4)cc23)cc1O [Example 23, 2-methoxy-5-(2-methyl-5-(3-(trifluoromethyl)phenyl)pyrazolo[1,5-c]pyrimidin-3-yl)phenol] | – | – |
| – | 0.11 | COc1ccc(-c2c(C(C)C)nn3cnc(-c4cccc(C(F)(F)F)c4)cc23)cc1O [Example 25, 5-(2-isopropyl-5-(3-(trifluoromethyl)phenyl)pyrazolo[1,5-c]pyrimidin-3-yl)-2-methoxyphenol] | – | – |
| – | 0.22 | COc1ccc(-c2c(CC3CC3)nc3cnc(-c4cccc(C(F)(F)F)c4)cn23)cc1O [Example 26, 2-methoxy-5-[2-(cyclopropylmethyl)-6-[3-(trifluoromethyl)phenyl]imidazo[1,2-a]pyrazin-3-yl]phenol] | – | – |
| < 0.049 | 0.149 | COc1ccc(-c2c(C(C)C)nc3cnc(-c4ccc(F)c(C(F)(F)F)c4)cn23)cc1O [Example 27, 2-methoxy-5-[2-(propan-2-yl)-6-[4-fluoro-3-(trifluoromethyl)phenyl]imidazo[1,2-a]pyrazin-3-yl]phenol] | – | – |
| – | – | COc1ccc(-c2c(C(C)C)nc3cnc(-c4cccc(C(F)(F)F)c4)cn23)cc1OP(=O)(O)O [Example 28, 2-methoxy-5-[2-(propan-2-yl)-6-[3-(trifluoromethyl)phenyl]imidazo[1,2-a]pyrazin-3-yl]phenoxyphosphonic acid] | 19.2 | 0.183 |
| – | 0.1 | Cc1nc2cnc(-c3cccc(S(F)(F)(F)(F)F)c3)cn2c1-c1c(F)cc(O)cc1F [Example 31, 3,5-difluoro-4-[2-methyl-6-[3-(pentafluorosulfanyl)phenyl]imidazo[1,2-a]pyrazin-3-yl]phenol] | – | – |
| – | 0.11 | CCc1nc2cnc(-c3ccc(F)c(C(F)(F)F)c3)cn2c1-c1ccc2[nH]ncc2c1F [Example 37, 4-fluoro-5-{2-ethyl-6-[4-fluoro-3-(trifluoromethyl)phenyl]imidazo[1,2-a]pyrazin-3-yl}-1H-indazole] | 13.1 | – |

| IC50 (S. mansoni adult worms) [µM] | IC50 [1, 2] [µM] | Structure (SMILES) | (e) Cytotox HepG2 (HepG2 cell line) [µM] | IC50 [1] [µM] |
| --- | --- | --- | --- | --- |
| – | 0.14 | Oc1cc(F)c(-c2c(CC(F)(F)F)nc3cnc(-c4ccc(F)c(C(F)(F)F)c4)cn23)c(F)c1 [Example 38, 3,5-difluoro-4-(6-(4-fluoro-3-(trifluoromethyl)phenyl)-2-(2,2,2-trifluoroethyl)imidazo[1,2-a]pyrazin-3-yl)phenol] | – | – |
| – | – | Cc1nc2cnc(-c3ccc(F)c(C(F)(F)F)c3)cn2c1-c1c(F)cc(OP(=O)(O)O)cc1F [Example 41, 3,5-difluoro-4-{6-[4-fluoro-3-(trifluoromethyl)phenyl]-2-methyl-imidazo[1,2-a]pyrazin-3-yl}phenoxyphosphonic acid] | 6.8 | 0.1 |
| – | 0.11 | Cc1nn2cnc(-c3ccc(F)c(C(F)(F)F)c3)cc2c1-c1c(F)cc(O)cc1F [Example 42, 3,5-difluoro-4-(5-(4-fluoro-3-(trifluoromethyl)phenyl)-2-methylpyrazolo[1,5-c]pyrimidin-3-yl)phenol] | – | – |
| – | 0.11 | Fc1ccc(-c2cn3c(-c4ccc5[nH]ncc5c4F)c(C4CC4)nc3cn2)cc1C(F)(F)F [Example 43, 2-cyclopropyl-3-(4-fluoro-1H-indazol-5-yl)-6-(4-fluoro-3-(trifluoromethyl)phenyl)imidazo[1,2-a]pyrazine] | – | – |
| 0.023 | 0.037 | Fc1ccc(-c2cn3c(-c4ccc5[nH]ncc5c4F)c(C4CC4)nc3cn2)cc1C(F)(F)C(F)(F)F [Example 54, 5-{2-cyclopropyl-6-[4-fluoro-3-(1,1,2,2,2-pentafluoroethyl)phenyl]imidazo[1,2-a]pyrazin-3-yl}-4-fluoro-1H-indazole] | – | – |
| 0.066 | 0.036 | Fc1ccc(-c2cc3c(-c4ccc5[nH]ncc5c4F)c(C4CC4)nn3cn2)cc1C(F)(F)C(F)(F)F [Example 59, 2-Cyclopropyl-3-(4-fluoro-1H-indazol-5-yl)-5-(4-fluoro-3-pentafluoroethyl-phenyl)-pyrazolo[1,5-c]pyrimidine] | – | – |
| 0.017 | 0.021 | Oc1cc(F)c(-c2c(C3CC3)nn3cnc(-c4ccc(F)c(C(F)(F)F)c4)cc23)c(F)c1 [Example 60, 4-[2-Cyclopropyl-5-(4-fluoro-3-trifluoromethyl-phenyl)-pyrazolo[1,5-c]pyrimidin-3-yl]-3,5-difluoro-phenol] | – | – |
| 0.037 | 0.06 | CC(C)c1nn2cnc(-c3ccc(F)c(C(F)(F)F)c3)cc2c1-c1ccc2[nH]ncc2c1F [Example 61, 3-(4-Fluoro-1H-indazol-5-yl)-5-(4-fluoro-3-trifluoromethyl-phenyl)-2-isopropylpyrazolo[1,5-c]pyrimidine] | – | – |
| 0.026 | 0.077 | Cc1nc2cnc(-c3ccc(F)c(S(F)(F)(F)(F)F)c3)cn2c1-c1ccc2[nH]ncc2c1F [Example 64, 3-(4-Fluoro-1H-indazol-5-yl)-6-(4-fluoro-3-pentafluorosulfanyl-phenyl)-2-methyl-imidazo[1,2-a]pyrazine] | – | – |
| 0.011 | 0.01 | CC(C)c1nc2cnc(-c3ccc(F)c(S(F)(F)(F)(F)F)c3)cn2c1-c1ccc2[nH]ncc2c1F [Example 68, 3-(4-Fluoro-1H-indazol-5-yl)-6-(4-fluoro-3-pentafluorosulfanyl-phenyl)-2-isopropyl-imidazo[1,2-a]pyrazine] | – | – |
| 0.025 | 0.041 | Fc1c(-c2c(C(F)(F)F)nc3cnc(-c4cccc(C(F)(F)F)c4)cn23)ccc2[nH]ncc12 [Example 70, 3-(4-Fluoro-1H-indazol-5-yl)-2-trifluoromethyl-6-(3-trifluoromethyl-phenyl)-imidazo[1,2-a]pyrazine] | – | – |
| 0.036 | 0.027 | CC(C)c1nc2cnc(-c3cccc(Br)c3)cn2c1-c1ccc2[nH]ncc2c1F [Example 73, 6-(3-Bromo-phenyl)-3-(4-fluoro-1H-indazol-5-yl)-2-isopropyl-imidazo[1,2-a]pyrazine] | – | – |
| 0.037 | 0.036 | Fc1ccc(-c2cn3c(-c4ccc5[nH]ncc5c4F)c(C4CCC4)nc3cn2)cc1C(F)(F)F [Example 76, 2-Cyclobutyl-3-(4-fluoro-1H-indazol-5-yl)-6-(4-fluoro-3-trifluoromethyl-phenyl)-imidazo[1,2-a]pyrazine] | – | – |
| 0.01 | 0.021 | C#CCOc1cc(-c2cn3c(-c4ccc5[nH]ncc5c4F)c(C(F)(F)F)nc3cn2)ccc1F [Example 78, 3-(4-Fluoro-1H-indazol-5-yl)-6-(4-fluoro-3-prop-2-ynyloxy-phenyl)-2-trifluoromethyl-imidazo[1,2-a]pyrazine] | – | – |
| 0.004 | 0.005 | CC(C)c1cc(-c2cn3c(-c4c(F)cc(O)cc4F)c(C4CC4)nc3cn2)ccc1F [Example 80, 4-[2-Cyclopropyl-6-(4-fluoro-3-isopropyl-phenyl)-imidazo[1,2-a]pyrazin-3-yl]-3,5-difluoro-phenol] | – | – |
| 0.048 | 0.007 | Fc1ccc(-c2cn3c(-c4ccc5[nH]ncc5c4F)c(C(F)(F)F)nc3cn2)cc1Br [Example 85, 6-(3-Bromo-4-fluoro-phenyl)-3-(4-fluoro-1H-indazol-5-yl)-2-trifluoromethyl-imidazo[1,2-a]pyrazine] | – | – |
